# Measured values published in patent US4973603A, “Platelet activating factor antagonist and methods of use therefor” (priority 1989, dated 1990).
# Entries after “also recorded” stand apart in the source; their conditions may differ.
# How the values were obtained:
# arachidonic acid = experiment: The Mouse Ear Edema Test (arachidonic acid-induced skin edema); format: in vivo, mouse (Charles River CD-1, female); details: for % Inhibition of Edema: 1 hour before arachidonic acid (0.5 mg)
# From the text: The direct application of arachidonic acid to skin, such as the mouse ear, produces an edematous response which is believed to be mediated by eicosanoids resulting from the actions of both cyclooxygenase and lipoxygenase systems. J. M. Young, D. A. Spires, C. J. Bedford, B. Wagner, S. J. Ballaron and L. M. DeYoung, J. Invest. Dermatol. 82:367-371 (1984); E. E. Opas, R. J. Bonney, and J. L. Hanes J. Invest. Dermatol. 84:253-256 (1985). PAF has been reported to cause the release of arachidonic acid, and as a result, gives rise to increased levels of eicosanoids in the exposed tissues. F. H. Chilton, J. T. Flaherty, C. E. Walsh, M. J. Thomas, R. L. Wykle, L. R. DeChatelet and B. M. Waite, J. Biol. Chem., 257:5402-5407 (1982). Thus, the mouse ear edema test can be used to discover substances which antagonize the effects of PAF.
# The test drugs were dissolved in 10 μl ethanol and applied to the inner surface of the left ears of Charles River CD-1 female mice. Control values were obtained by applying 10 μl of ethanol to the right ear so that each mouse served as its own control. One hour later, arachidonic acid (0.5 mg/ear in 10 μl ethanol) was applied to both ears and allowed to act on the skin for one hour. The mice were then killed by cervical dislocation and the ears removed so that all tissue samples were of equivalent areas. The extent of edema in each sample was measured by weighing on an analytical balance.
# [1] = test system: 5-HETE synthesis in mouse peritoneal macrophages; experiment: Inhibition of 5-HETE Synthesis in mouse peritoneal macrophages; format: cell-based, mouse (CD-1, female); details: for 5-HETE (%) (percentage of total recovered radioactivity): vehicle 2.9 ± 0.16
# Method: It has been proposed that products of lipoxygenase action such as leukotriene […] (LTB4) and 5-hydroxyeicosatetraenoic acid (5-HETE) can act synergistically with PAF to cause neutrophil degranulation which may contribute to the development of inflammation. J. T. O'Flaherty, J. Cell Biology, 122:229-239 (1985). Formula I was tested as an inhibitor of 5-HETE production in mouse peritoneal macrophages using the following procedure.
# Peritoneal cells were collected from female CD-1 mice (20-25 g) following sacrifice by cervical dislocation. The cells from each group of mice were pooled, centrifuged and suspended in MEM. Aliquotes containing 4.5×10^6 cells in 3.0 ml MEM were placed in culture dishes and incubated for 18 hours at 37° C. By this procedure, a relatively homogenous monolayer of macrophages was obtained. Eicosanoid synthesis was brought about by the addition of ^14 C-arachidonic acid (2×10^5 dpm; 0.22 μM) followed by a calcium ionophore, A23187 (0.03 μM). After 15 minutes, the reaction was stopped by the addition of citric acid to pH4 and the products were extracted with ethyl acetate. Silica gel thin layer chromatography (hexane; ether; acetic acid; 50:50:1) was used to separate the 5-HETE which was identified by comparison with authentic material. Carbon-14 content was measured by liquid scintillation counting of the HETE containing zone. The significance of drug induced changes was calculated using the Student's test when compared with vehicle treated (ethanol, 30 μl) cells.
# gastric mucosa = test system: gastric mucosa
# Method: Robert and Szabo, In: Selye's Guide to Stress Research, (Vol. 2, A. Selye, Ed.) New York; Van Nostrand Reinhold Co., pp. 22-46 (1983); and Robert et al., Gastroenterology, 77:433-443 (1979). Experimental groups of 5-11 rats (Charles River CD) were fasted for 24 hours before the administration of either aspirin, Formula I or indomethacin by a rubber stomach tube (Rusch No. 8). The animals were killed 1 hour later by carbon dioxide asphyxiation. At that time, 4 ml of 10% aqueous buffered formaldehyde (formalin) was injected directly into the stomach of each animal. […] After 5 minutes of in situ fixation, the stomach and proximal duodenum were removed, opened along the greater curvature, pinned on a cork with mucosa upward, and immersed in 10% formaldehyde until further processing. Szabo, S. et al., J. Pharmacol. Meth., 13:59-66 (1985). The gastric lesions were then evaluated by direct visual inspection.
# For comparative purposes, a semiquantitative scale of 0-3 was used to assess the extent of gastric mucosal lesions. Szabo et al., Science, 214:200-202 (1981); and Szabo et al., Gastroenterology, 85:1384-1390 (1983). According to this scale, a score of 0 indicates a normal mucosa; 1 represents the appearance of between 1 and 4 small petechiae; 2 indicates the presence of 5 or more petechiae or hemmorhagic streaks up to 4 mm in length; 3 represents the appearance of erosions longer than 5 mm or confluent hemmorrhages.
# [2] = test system: platelet activating factor (PAF); experiment: PAF Induced Paw Edema in the Mouse; format: in vivo, mouse (Charles River CD-1, female); details: for % Inhibition of Edema: 1 hour before PAF (1 ug/paw), 15 min after PAF
# Method: The experimental procedure was adapted from Calhoun et al., Agents & Actions, 21:306-309 (1987). Charles River CD-1 female mice (20-25 G) were given a dose of Formula I, or phenidone, using peanut oil as a carrier. Control mice were given doses of the carrier alone. The drugs were administered orally in a 50 μl volume of peanut oil. One hour later, 1.0 μg of PAF dissolved in 50 μl of 5% ethanol-saline was injected subcutaneously into the plantar surface of the right hind paw. The volume of this injected foot to the level of the lateral malleous was measured by water displacement immediately before drug administration and again 15 minutes after PAF injection.
# The effectiveness of each compound was analyzed in the following manner. The individual paw volumes were compared by a paired t test analysis in which predrug paw volumes were compared to paw volumes 15 minutes after PAF injection to determine the level of statistical significance. The percent inhibition of edema volume was obtained from the ratio of the mean predrug volume to the mean volume after PAF.
smiles,measurement,setting,value
"CCCCCc1cc(O)c2c(c1)OC(C)(C)C1CC=C(C(=O)O)CC21 (stereo not drawn) [Formula I, 6a,7,10,10a-tetrahydro-6,6-dimethyl-9-carboxyl-3-pentyl-6H-dibenzo[b,d]pyran-1-ol]",% Inhibition of Edema,arachidonic acid; 0.13 mg/ear topical,0.6%
same,% Inhibition of Edema,arachidonic acid; 0.25 mg/ear topical,18.3%
same,% Inhibition of Edema,arachidonic acid; 0.50 mg/ear topical,19.1%
same,% Inhibition of Edema,arachidonic acid; 1.0 mg/ear topical,19.3%
same,reduction of arachidonic acid-induced skin edema (in words),"arachidonic acid; topical, mouse ear",effective in reducing arachidonic acid-induced skin edema
same,relative activity versus naproxen,"arachidonic acid; topical, mouse ear",more active than the widely used antiinflammatory drug naproxen
same,relative potency versus indomethacin and phenidone,"arachidonic acid; topical, mouse ear",approximately one half the potency of agents such as indomethacin and phenidone
same,5-HETE (%) (percentage of total recovered radioactivity),[1]; 0.32 μM,3.08 ± 0.36%
same,5-HETE (%) (percentage of total recovered radioactivity),[1]; 1.6 μM,3.03 ± 0.42%
same,5-HETE (%) (percentage of total recovered radioactivity),[1]; 3.2 μM,1.58 ± 0.41%
same,5-HETE (%) (percentage of total recovered radioactivity),[1]; 4 μM,1.68 ± 0.15%
same,5-HETE (%) (percentage of total recovered radioactivity),[1]; 8 μM,1.48 ± 0.87%
same,5-HETE (%) (percentage of total recovered radioactivity),[1]; 16 μM,3.10 ± 0.10%
same,inhibition at 3.2 µM,"[1]; Mus musculus, Peritoneal macrophage, 3.2 μM",46%
same,inhibition at 4 µM,"[1]; Mus musculus, Peritoneal macrophage, 4 μM",42%
same,inhibition at 8 µM,"[1]; Mus musculus, Peritoneal macrophage, 8 μM",49%
same,reduction of 5-HETE synthesis (in words),[1]; dose range of 3.2 to 8 μM,reduces 5-HETE synthesis to one half of the control level
same,Incidence (rats with lesions/total tested),"gastric mucosa; 80 mg/kg by stomach tube, 1 hour",0/10
same,Mean Score,"gastric mucosa; 80 mg/kg by stomach tube, 1 hour, scale 0-3 (0 = normal mucosa)",0.0
same,ulcer / gastric lesion formation (in words),"gastric mucosa; directly into the stomach, Formula I at twice its therapeutic dose in the mouse (40 mg/kg), 40 mg/kg",did not induce ulcer formation; also recorded: does not induce the formation of gastric lesions
same,% Inhibition of Edema,[2]; 10 mg/kg oral,21.8%
same,% Inhibition of Edema,[2]; 20 mg/kg oral,50.2%
same,% Inhibition of Edema,[2]; 40 mg/kg oral,46.2%
same,antagonism of inflammatory actions of PAF (in words),"[2]; mouse paw edema, oral",effective antagonist to the inflammatory actions of PAF
